Test results reported in PubChem BioAssay (NCI).
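Protocol summary: plate cells (96-well), add compound at 5 concentrations, incubate 48 h, interpolate endpoints linearly. TGI marks complete inhibition of growth.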

Key:
Test in all cases: growth of human tumour cells (NCI), 48 h
786-0 renal = tested on: 786-0 renal
A498 renal = tested on: A498 renal
A549 NSCLC = tested on: A549 NSCLC
ACHN renal = tested on: ACHN renal
BT-549 breast = tested on: BT-549 breast
CAKI-1 renal = tested on: CAKI-1 renal
CCRF-CEM leukemia = tested on: CCRF-CEM leukemia
COLO 205 colon = tested on: COLO 205 colon
DU-145 prostate = tested on: DU-145 prostate
EKVX NSCLC = tested on: EKVX NSCLC
HCC-2998 colon = tested on: HCC-2998 colon
HCT-116 colon = tested on: HCT-116 colon
HL-60(TB) leukemia = tested on: HL-60(TB) leukemia
HOP-62 NSCLC = tested on: HOP-62 NSCLC
HOP-92 NSCLC = tested on: HOP-92 NSCLC
HS 578T breast = tested on: HS 578T breast
HT29 colon = tested on: HT29 colon
IGROV1 ovarian = tested on: IGROV1 ovarian
K-562 leukemia = tested on: K-562 leukemia
KM12 colon = tested on: KM12 colon
LOX IMVI melanoma = tested on: LOX IMVI melanoma
M14 melanoma = tested on: M14 melanoma
MALME-3M melanoma = tested on: MALME-3M melanoma
MCF7 breast = tested on: MCF7 breast
MDA-MB-231 breast = tested on: MDA-MB-231 breast
MDA-MB-435 = tested on: MDA-MB-435
MDA-N = tested on: MDA-N
MOLT-4 leukemia = tested on: MOLT-4 leukemia
NCI-H226 lung = tested on: NCI-H226 lung
NCI-H23 lung = tested on: NCI-H23 lung
NCI-H460 lung = tested on: NCI-H460 lung
NCI-H522 lung = tested on: NCI-H522 lung
NCI/ADR-RES ovarian = tested on: NCI/ADR-RES ovarian
OVCAR-3 ovarian = tested on: OVCAR-3 ovarian
OVCAR-4 ovarian = tested on: OVCAR-4 ovarian
OVCAR-5 ovarian = tested on: OVCAR-5 ovarian
OVCAR-8 ovarian = tested on: OVCAR-8 ovarian
PC-3 prostate = tested on: PC-3 prostate
RPMI-8226 leukemia = tested on: RPMI-8226 leukemia
SF-268 CNS = tested on: SF-268 CNS
SF-295 CNS = tested on: SF-295 CNS
SK-MEL-2 melanoma = tested on: SK-MEL-2 melanoma
SK-MEL-28 melanoma = tested on: SK-MEL-28 melanoma
SK-MEL-5 melanoma = tested on: SK-MEL-5 melanoma
SK-OV-3 ovarian = tested on: SK-OV-3 ovarian
SN12C renal = tested on: SN12C renal
SNB-19 CNS = tested on: SNB-19 CNS
SNB-75 CNS = tested on: SNB-75 CNS
SR leukemia = tested on: SR leukemia
SW-620 colon = tested on: SW-620 colon
U251 CNS = tested on: U251 CNS
UACC-257 melanoma = tested on: UACC-257 melanoma
UACC-62 melanoma = tested on: UACC-62 melanoma
UO-31 renal = tested on: UO-31 renal
HCT-15 colon = tested on: HCT-15 colon
RXF 393 renal = tested on: RXF 393 renal
SF-539 CNS = tested on: SF-539 CNS
TK-10 renal = tested on: TK-10 renal

In the case of `CCOP(=O)(OCC)/C(C#N)=C/c1coc2cc(C)cc(C)c2c1=O`, the TGI (786-0 renal) is reported as over 100 µM, the TGI (A498 renal) is reported as over 100 µM and the TGI (A549 NSCLC) is reported as over 100 µM. The TGI (ACHN renal) was over 100 µM, the TGI (BT-549 breast) was over 100 µM and the TGI (CAKI-1 renal) was over 100 µM. It also gave a TGI (CCRF-CEM leukemia) of over 100 µM, a TGI (COLO 205 colon) of over 100 µM and a TGI (DU-145 prostate) of over 100 µM. It also gave a TGI (EKVX NSCLC) of over 100 µM, a TGI (HCC-2998 colon) of over 100 µM and a TGI (HCT-116 colon) of over 100 µM. For the same compound, the TGI (HL-60(TB) leukemia) was over 100 µM, the TGI (HOP-62 NSCLC) was over 100 µM and the TGI (HOP-92 NSCLC) was over 100 µM. The TGI (HS 578T breast) was over 100 µM, the TGI (HT29 colon) was over 100 µM and the TGI (IGROV1 ovarian) was over 100 µM. It also gave a TGI (K-562 leukemia) of over 100 µM, a TGI (KM12 colon) of over 100 µM and a TGI (LOX IMVI melanoma) of over 100 µM. The TGI (M14 melanoma) was over 100 µM, the TGI (MALME-3M melanoma) was over 100 µM and the TGI (MCF7 breast) was over 100 µM. The TGI (MDA-MB-231 breast) was over 100 µM, the TGI (MDA-MB-435) was over 100 µM and the TGI (MDA-N) was over 100 µM. For the same compound, the TGI (MOLT-4 leukemia) was over 100 µM, the TGI (NCI-H226 lung) was over 100 µM and the TGI (NCI-H23 lung) was over 100 µM. It also gave a TGI (NCI-H460 lung) of over 100 µM, a TGI (NCI-H522 lung) of over 100 µM and a TGI (NCI/ADR-RES ovarian) of over 100 µM. For the same compound, the TGI (OVCAR-3 ovarian) was over 100 µM, the TGI (OVCAR-4 ovarian) was over 100 µM and the TGI (OVCAR-5 ovarian) was over 100 µM. It also gave a TGI (OVCAR-8 ovarian) of over 100 µM, a TGI (PC-3 prostate) of over 100 µM and a TGI (RPMI-8226 leukemia) of over 100 µM. It also gave a TGI (SF-268 CNS) of over 100 µM, a TGI (SF-295 CNS) of over 100 µM and a TGI (SK-MEL-2 melanoma) of over 100 µM. It also gave a TGI (SK-MEL-28 melanoma) of over 100 µM, a TGI (SK-MEL-5 melanoma) of over 100 µM and a TGI (SK-OV-3 ovarian) of over 100 µM. For the same compound, the TGI (SN12C renal) was over 100 µM, the TGI (SNB-19 CNS) was over 100 µM and the TGI (SNB-75 CNS) was over 100 µM. The TGI (SR leukemia) was over 100 µM, the TGI (SW-620 colon) was over 100 µM and the TGI (U251 CNS) was over 100 µM. The TGI (UACC-257 melanoma) was over 100 µM, the TGI (UACC-62 melanoma) was over 100 µM and the TGI (UO-31 renal) was over 100 µM.

For `C/C(=N/NC(=S)N1CCCCC1)c1cccc(/C(C)=N\NC(=S)N2CCCCC2)n1`, the TGI (786-0 renal) was 3.46 µM, the TGI (A498 renal) was 3.16 µM and the TGI (A549 NSCLC) was 7.29 µM. The TGI (ACHN renal) was 3.02 µM, the TGI (BT-549 breast) was 3.4 µM and the TGI (CAKI-1 renal) was 3.93 µM. The TGI (CCRF-CEM leukemia) was over 100 µM, the TGI (COLO 205 colon) was 10.1 µM and the TGI (DU-145 prostate) was 6.35 µM. For the same compound, the TGI (EKVX NSCLC) was 5.79 µM, the TGI (HCC-2998 colon) was 4.01 µM and the TGI (HCT-116 colon) was 3.64 µM. For the same compound, the TGI (HCT-15 colon) was 4.25 µM, the TGI (HL-60(TB) leukemia) was 5.66 µM and the TGI (HOP-62 NSCLC) was 15.9 µM. The TGI (HS 578T breast) was 6.57 µM, the TGI (HT29 colon) was 7.22 µM and the TGI (IGROV1 ovarian) was 4.45 µM. The TGI (K-562 leukemia) was 6.65 µM, the TGI (KM12 colon) was 6.14 µM and the TGI (LOX IMVI melanoma) was 5.4 µM. It also gave a TGI (MALME-3M melanoma) of 4.58 µM, a TGI (MCF7 breast) of 4.46 µM and a TGI (MDA-MB-231 breast) of 3.99 µM. The TGI (MDA-MB-435) was 3.62 µM, the TGI (MDA-N) was 3.17 µM and the TGI (MOLT-4 leukemia) was 6.38 µM. It also gave a TGI (NCI-H226 lung) of 5.54 µM, a TGI (NCI-H23 lung) of over 100 µM and a TGI (NCI-H460 lung) of 4.75 µM. It also gave a TGI (NCI-H522 lung) of 4.34 µM, a TGI (NCI/ADR-RES ovarian) of 4.72 µM and a TGI (OVCAR-3 ovarian) of 5.49 µM. For the same compound, the TGI (OVCAR-5 ovarian) was 2.44 µM, the TGI (OVCAR-8 ovarian) was 3.19 µM and the TGI (PC-3 prostate) was 4.03 µM. The TGI (RPMI-8226 leukemia) was 6.84 µM, the TGI (RXF 393 renal) was 5.15 µM and the TGI (SF-268 CNS) was 9.06 µM. The TGI (SF-295 CNS) was 4.06 µM, the TGI (SF-539 CNS) was 3.9 µM and the TGI (SK-MEL-2 melanoma) was 4.2 µM. It also gave a TGI (SK-MEL-28 melanoma) of 4.32 µM, a TGI (SK-MEL-5 melanoma) of 3.54 µM and a TGI (SK-OV-3 ovarian) of 3.56 µM. For the same compound, the TGI (SN12C renal) was 4.83 µM, the TGI (SNB-19 CNS) was 7.09 µM and the TGI (SNB-75 CNS) was 6.53 µM. The TGI (SR leukemia) was 6.58 µM, the TGI (SW-620 colon) was 10.6 µM and the TGI (TK-10 renal) was 3.69 µM. The TGI (U251 CNS) was 4.45 µM, the TGI (UACC-257 melanoma) was 6.85 µM and the TGI (UACC-62 melanoma) was 5.54 µM. For the same compound, the TGI (UO-31 renal) was 2.78 µM.

`CCOC(=O)N1CCN(c2ccc3ccc(N)nc3n2)CC1` showed a TGI (786-0 renal) of over 100 µM, a TGI (A549 NSCLC) of over 100 µM and a TGI (ACHN renal) of over 100 µM. The TGI (BT-549 breast) was over 100 µM, the TGI (CAKI-1 renal) was over 100 µM and the TGI (CCRF-CEM leukemia) was over 100 µM. It also gave a TGI (COLO 205 colon) of over 100 µM, a TGI (DU-145 prostate) of over 100 µM and a TGI (EKVX NSCLC) of over 100 µM. It also gave a TGI (HCC-2998 colon) of over 100 µM, a TGI (HCT-116 colon) of over 100 µM and a TGI (HCT-15 colon) of over 100 µM. It also gave a TGI (HL-60(TB) leukemia) of over 100 µM, a TGI (HOP-62 NSCLC) of over 100 µM and a TGI (HOP-92 NSCLC) of over 100 µM. For the same compound, the TGI (HS 578T breast) was over 100 µM, the TGI (HT29 colon) was over 100 µM and the TGI (IGROV1 ovarian) was over 100 µM. For the same compound, the TGI (K-562 leukemia) was over 100 µM, the TGI (KM12 colon) was over 100 µM and the TGI (LOX IMVI melanoma) was over 100 µM. The TGI (M14 melanoma) was over 100 µM, the TGI (MALME-3M melanoma) was over 100 µM and the TGI (MCF7 breast) was over 100 µM. For the same compound, the TGI (MDA-MB-231 breast) was over 100 µM, the TGI (MDA-MB-435) was over 100 µM and the TGI (MDA-N) was over 100 µM. For the same compound, the TGI (MOLT-4 leukemia) was over 100 µM, the TGI (NCI-H226 lung) was over 100 µM and the TGI (NCI-H23 lung) was over 100 µM. It also gave a TGI (NCI-H460 lung) of over 100 µM, a TGI (NCI-H522 lung) of over 100 µM and a TGI (NCI/ADR-RES ovarian) of over 100 µM. For the same compound, the TGI (OVCAR-3 ovarian) was over 100 µM, the TGI (OVCAR-4 ovarian) was over 100 µM and the TGI (OVCAR-5 ovarian) was over 100 µM. The TGI (OVCAR-8 ovarian) was over 100 µM, the TGI (PC-3 prostate) was over 100 µM and the TGI (RPMI-8226 leukemia) was over 100 µM. For the same compound, the TGI (SF-268 CNS) was over 100 µM, the TGI (SF-295 CNS) was over 100 µM and the TGI (SF-539 CNS) was over 100 µM. It also gave a TGI (SK-MEL-2 melanoma) of over 100 µM, a TGI (SK-MEL-28 melanoma) of over 100 µM and a TGI (SK-OV-3 ovarian) of over 100 µM. It also gave a TGI (SN12C renal) of over 100 µM, a TGI (SNB-19 CNS) of over 100 µM and a TGI (SNB-75 CNS) of over 100 µM. The TGI (SR leukemia) was over 100 µM, the TGI (SW-620 colon) was over 100 µM and the TGI (TK-10 renal) was over 100 µM. The TGI (U251 CNS) was over 100 µM, the TGI (UACC-257 melanoma) was over 100 µM and the TGI (UACC-62 melanoma) was over 100 µM. For the same compound, the TGI (UO-31 renal) was over 100 µM.
